# Values quoted from earlier work as cited in publication PMC9660540 (Clinical Cancer Research, 2022).
# Like-named read-outs stand apart in the source and are kept apart here.
# Tests used:
# advanced NSCLC = details: in combination with carboplatin, pemetrexed, and pembrolizumab; of 6 evaluable patients; ref [47]; cited from earlier work
# [1] = phase I trials; ref [45]; cited from earlier work
# [2] = cited from earlier work
# mCRPC = details: cited from earlier work; for OS benefit: phase III clinical trials, ref [35–37]
# [3] = test system: renal cell carcinoma (RCC); details: pretreated patients with RCC; ref [43]; cited from earlier work
compound,measurement,setting,value
Cc1c(C#N)cccc1-c1cc(-c2cn(Cc3cccc(C(C)(C)O)n3)nn2)nc(N)n1 [AB928],Patients with a PR,advanced NSCLC,3 patients
C[S@+]([O-])CCOc1cc(N2CCN(CCn3c(=O)sc4c3nc(N)n3nc(-c5ccco5)nc43)CC2)c(F)cc1F [EOS100850],Best response of SD,[1],6 patients
same,Grade ≥3 treatment-related AEs,"[2]; up to doses of 160 mg twice daily, ref [42, 45]",no grade ≥3 treatment-related AEs
Nc1nc(-n2cccn2)nc(-n2cccn2)c1Br [NIR178],Grade ≥3 treatment-related AEs,"[2]; monotherapy, at the highest doses (480 and 640 mg), ref [42, 44]","nausea, increased AST, ALT, and lipase levels, and pneumonitis"
CO[C@H]1C(=O)[C@]2(C)[C@@H](OC)C[C@H]3OC[C@@]3(OC(C)=O)[C@H]2[C@H](OC(=O)c2ccccc2)[C@]2(O)C[C@H](OC(=O)[C@H](O)[C@@H](NC(=O)OC(C)(C)C)c3ccccc3)C(C)=C1C2(C)C [cabazitaxel],Median PFS,"mCRPC; later-line mCRPC, ref [48]",3.9 months
Cc1ccc(-c2nc(N)nc3c2nnn3Cc2cccc(CO[C@H]3CCOC3)n2)o1 [ciforadenant],Patients with a PR,[3],3%
same,Most common treatment-related AEs,"[2]; ref [42, 43]","fatigue, nausea, and pruritus"
same,Patients with tumor regression,"mCRPC; mCRPC, with or without atezolizumab, of 33 patients, ref [46]",5 patients
atezolizumab: anti–PD-L1 antibody,OS benefit,mCRPC; mCRPC,failed to demonstrate an OS benefit
durvalumab: human immunoglobulin G1 monoclonal antibody that inhibits binding of PD-L1 to PD-1 and CD80,Grade 3−4 treatment-related events,"[2]; durvalumab monotherapy, PACIFIC study, ref [33]",11.8%
ipilimumab: anti–CTLA-4 antibody,OS benefit,mCRPC; mCRPC,failed to demonstrate an OS benefit
